{
  "source": "patent US20240261474A1",
  "about": "“BIODEGRADABLE TISSUE SCAFFOLD WITH SECONDARY MATRIX TO HOST WEAKLY ADHERENT CELLS” (THE U.S.A., as represented by the Secretary, Department of …, priority 2021, published 2024)",
  "assay_type_in_all_cases": "cell-based, human",
  "key": {"iPSC-RPE [1]": {"tested_on": "iPSC-RPE", "assay": "Testing different concentrations of AGN 193109 and endo-IWR-1 to reproduce macular (P1), central (P2) and peripheral (P3) cells", "procedure": "FIG. 13. Testing different concentrations of AGN 193109 and endo-IWR-1 to reproduce macular (P1), central (P2) and peripheral (P3) cells. A range of concentrations of AGN 193109 and endo-IWR-1 were tested that could be used to reproduce macular, central and peripheral RPE populations (labeled P1, P2 and P3, respectively). Population 1 (P1, macular cells) can be reproduced with […] of AGN 193109. Population 3 (P3, peripheral) can be reproduced with 1 mM-4 mM of endo-IWR-1. A gradient of AGN 193109 and endo-IWR-1 could be used to replicate human RPE population 2 (P2, central)—central RPE cells. In one example, this can be reproduced with 25 nM-50 nM of AGN 193109 and 0.1 mM-0.5 mM of endo-IWR-1. Boxplots relative to DMSO, P1, P2 and P3 are plotted on the left side of the graph as a reference for cell size comparison. Five concentrations were tested for AGN 193109 and endo-IWR-1."}, "iPSC-RPE [2]": {"tested_on": "iPSC-RPE", "assay": "Phenotypic characterization of selected drug treatments (TER, brightfield, H&E, TEM, SEM)", "conditions": "for induced RPE phenotype: cell size and apical processes; for effect on iPSC-RPE health: verified by TER, brightfield, H&E and TEM", "description": "Eleven compounds were selected for further phenotypic characterization based on their initial effect in RPE cell size. […] Because the macula is dominated by cones while the periphery is dominated by rods, RPE cells in these two different regions might be enriched in one of the two apical process structures. It was hypothesized that the phenotype of RPE apical processes will serve as an additional discriminatory factor, other than RPE morphometry.\nDifferent techniques were used to study RPE morphologic features.\nStarting at D21, iPSC-RPE were treated with the different compounds. At D40 immature RPE were enriched by negative selection, as per differentiation protocol, and seeded on transwells for maturation. iPSC-RPE were treated with the compounds for other 6 weeks until cells were fully mature (FIG. 1 and FIG. 11)."}, "iPSC-RPE [3]": {"tested_on": "iPSC-RPE", "assay": "Brightfield imaging of RPE pigmentation", "conditions": "compared to DMSO-treated iPSC-RPE, AGN 193109 0.2 μM, endo-IWR-1 4 uM", "procedure": "Brightfield imaging was used to determine RPE pigmentation defects, while hematoxylin and eosin (H&E) staining was valuable to inspect gross morphologic alterations of the monolayer. A section of transwell membrane was cut and mounted on a glass slide for brightfield imaging. Pigmentation levels were preserved after ENDO-1-IWR and AGN 193109 treatments as compared to DMSO-treated iPSC-RPE.\nAGN 193109 was used at 0.2 μM and endo-IWR-1 at 4 uM. Both drugs were dissolved in DMSO, so that the final concentration of DMSO was not more than 0.1%. The final concentration of DMSO control was 0.1%. The compounds were added in RPE maturation medium until cells were mature. Gross cell morphology was also analyzed (FIGS. 20B, 20D, and 20F, left image) to detect possible abnormalities. Fine intracellular structures were examined for alterations with transmission electron microscopy (TEM, FIGS. 20B, 20D, and 20F, right image)."}, "iPSC-RPE [4]": {"tested_on": "iPSC-RPE", "assay": "High-content compound screening on iPSC-RPE, cell area quantified with REShAPE", "conditions": "384-well plates, 30 days in RPE maturation medium", "procedure": "Screening of Compound Library and Imaging: 115 drugs targeting various developmental pathways or cytoskeletal stressors were selected to form a new developmental library of compounds. The drugs are either activators or inhibitors of various signaling pathways and target proteins at different levels of the signaling cascades. For each drug, an initial concentration was selected, and adjustments made to the concentration of each drug. The assays were performed on iPSC-derived committed RPE. For every drug, the concentration was lowered if toxicity was detected or increased if there was no evident effect on cell morphology in comparison to control. The list of compounds tested can be found in Table 1. The high-content screening was performed in 384-well plates (cat #6057300, Perkin Elmer) using a range of 3 different concentrations (3×, 1×, 0.3×). […]\nMorphometric Analysis Using REShAPE: The binary segmentation produced by the CNN algorithm was transferred to REShAPE for cell shape analysis. […] For every cell in a field of view that has been successfully segmented, REShAPE provide quantification of more than 25 different shape metrics. […] In addition, the software created images of segmented cells for every metric analyzed, where every cell is color-coded according to the raw values (FIG. 4). The color-coded images display the location of the cells analyzed. […]"}},
  "note": "Entries after “also recorded” stand apart in the source; their conditions may differ.",
  "data": [
    {"compound": "Cc1ccc(C2=CCC(C)(C)c3ccc(C#Cc4ccc(C(=O)O)cc4)cc32)cc1", "note": "[AGN 193109, 4-[2-[5,6-Dihydro-5,5-dimethyl-8-(4-methylphenyl)-2-naphthalenyl]ethynyl]-benzoic acid]", "values": [
      {"measurement": "concentration that reproduces population 2 (P2, central)", "setting": "iPSC-RPE [1]; AGN 193109 combined with endo-IWR-1", "result": "25 to 50", "unit": "nM"},
      {"measurement": "concentration used to reproduce P1 (macular)", "setting": "iPSC-RPE [1]; Table 6", "result": "0.1 to 0.2", "unit": "µM"},
      {"measurement": "induced RPE phenotype", "setting": "iPSC-RPE [2]", "result": "induces a macular RPE phenotype"},
      {"measurement": "effect on iPSC-RPE health", "setting": "iPSC-RPE [2]", "result": "not disruptive of iPSC-RPE health; also recorded: did not affect the healthy RPE phenotype"},
      {"measurement": "pigmentation levels", "setting": "iPSC-RPE [3]", "result": "preserved; also recorded: did not alter pigmentation levels"},
      {"measurement": "effect on iPSC-RPE cell area / cell size distribution in the screening", "setting": "iPSC-RPE [4]", "result": "reproduces macular and peripheral cell sizes in vitro, respectively"}
    ]},
    {"compound": "O=C(Nc1cccc2cccnc12)c1ccc(N2C(=O)C3C4C=CC(C4)C3C2=O)cc1", "note": "(stereo not drawn) [ENDO-1-IWR, 4-(1,3,3a,4,7,7a-Hexahydro-1,3-dioxo-4,7-methano-2H-isoindol-2-yl)-N-8-quinolinyl-Benzamide]", "values": [
      {"measurement": "concentration used to reproduce P3 (peripheral)", "setting": "iPSC-RPE [1]; Table 6", "result": "1 to 4", "unit": "µM"},
      {"measurement": "concentration used to reproduce P2 (central)", "setting": "iPSC-RPE [1]; Table 6, ENDO-1-IWR combined with AGN 193109", "result": "0.1 to 0.2", "unit": "µM"},
      {"measurement": "induced RPE phenotype", "setting": "iPSC-RPE [2]", "result": "induces a peripheral RPE phenotype"},
      {"measurement": "effect on iPSC-RPE health", "setting": "iPSC-RPE [2]", "result": "not disruptive of iPSC-RPE health; also recorded: did not affect the healthy RPE phenotype"},
      {"measurement": "pigmentation levels", "setting": "iPSC-RPE [3]", "result": "preserved"},
      {"measurement": "pigmentation levels", "setting": "iPSC-RPE [3]; listed as Endo-IWR-1", "result": "did not alter pigmentation levels"},
      {"measurement": "pigmentation levels", "setting": "iPSC-RPE [3]; listed as endo-IWR-1", "result": "did not alter pigmentation levels"},
      {"measurement": "effect on iPSC-RPE cell area / cell size distribution in the screening", "setting": "iPSC-RPE [4]", "result": "reproduces macular and peripheral cell sizes in vitro, respectively"}
    ]}
  ]
}
